Data as given in ChEMBL document CHEMBL3616435, “Cytotoxic cardenolides from the latex of Calotropis procera” (Bioorg Med Chem Lett, 2015).

Columns and labels:
[1] = test system: A549; experiment: Cytotoxicity against human A549 cells by MTT assay; assay type: functional, cell-based
[2] = test system: HeLa; experiment: Cytotoxicity against human HeLa cells by MTT assay; assay type: functional, cell-based
[3] = test system: Staphylococcus aureus; experiment: Antimicrobial activity against methicillin-resistant Staphylococcus aureus after 16 hrs by broth microdilution method; assay type: functional
[4] = test system: Bacillus subtilis; experiment: Antimicrobial activity against Bacillus subtilis after 16 hrs by broth microdilution method; assay type: functional
[5] = test system: Escherichia coli; experiment: Antimicrobial activity against Escherichia coli after 16 hrs by broth microdilution method; assay type: functional
[6] = test system: Candida albicans; experiment: Antimicrobial activity against Candida albicans after 16 hrs by broth microdilution method; assay type: functional

Structure (SMILES)	IC50 [1]	IC50 [2]	MIC [3]	MIC [4]	MIC [5]	MIC [6]
C[C@@H]1C[C@@H](O)[C@]2(O)O[C@@H]3C[C@@]4(C=O)[C@@H](CC[C@@H]5[C@@H]4CC[C@]4(C)[C@@H](C6=CC(=O)OC6)C[C@@H](O)[C@]54O)C[C@H]3O[C@@H]2C1	79 nM	128 nM	> 100 µg/mL	> 100 µg/mL	> 100 µg/mL	> 100 µg/mL
CO[C@@H]1C[C@@H](C)C[C@H]2O[C@@H]3C[C@@H]4CC[C@@H]5[C@H](CC[C@]6(C)[C@@H](C7=CC(=O)OC7)C[C@@H](O)[C@]56O)[C@@]4(C=O)C[C@H]3O[C@@]12O	65 nM	104 nM	> 100 µg/mL	> 100 µg/mL	> 100 µg/mL	> 100 µg/mL
C[C@@H]1C[C@@H](O)[C@]2(O)O[C@@H]3C[C@@]4(C)[C@@H](CC[C@@H]5[C@@H]4CC[C@]4(C)[C@@H](C6=CC(=O)OC6)C[C@@H](O)[C@]54O)C[C@H]3O[C@@H]2C1	347 nM	663 nM	> 100 µg/mL	> 100 µg/mL	> 100 µg/mL	> 100 µg/mL
C[C@H]1C[C@H]2O[C@@H]3C[C@@H]4CC[C@@H]5[C@H](CC[C@]6(C)[C@@H](C7=CC(=O)OC7)CC[C@]56O)[C@@]4(C=O)C[C@H]3O[C@@]2(O)[C@H](O)[C@@H]1O	58 nM	87 nM	> 100 µg/mL	> 100 µg/mL	> 100 µg/mL	> 100 µg/mL
C[C@H]1C[C@H]2O[C@@H]3C[C@@H]4CC[C@@H]5[C@H](CC[C@]6(C)[C@@H](C7=CC(=O)OC7)C[C@@H](O)[C@]56O)[C@@]4(C=O)C[C@H]3O[C@@]2(O)[C@@]2(C1)N=CCS2	157 nM	318 nM	> 100 µg/mL	> 100 µg/mL	> 100 µg/mL	> 100 µg/mL
C[C@]12[C@H](O)C[C@H]3[C@@H](CC[C@H]4C[C@H](O)CC[C@@]43CO)[C@@]1(O)CC[C@@H]2C1=CC(=O)OC1	604 nM	1150 nM	> 100 µg/mL	> 100 µg/mL	> 100 µg/mL	> 100 µg/mL
C[C@]12[C@H](O)C[C@H]3[C@@H](CC[C@H]4C[C@H](O)CC[C@@]43C=O)[C@@]1(O)CC[C@@H]2C1=CC(=O)OC1	1020 nM	1430 nM	> 100 µg/mL	> 100 µg/mL	> 100 µg/mL	> 100 µg/mL
C[C@]12C[C@@H](O)[C@H](O)C[C@@H]1CC[C@@H]1[C@@H]2CC[C@]2(C)[C@@H](C3=CC(=O)OC3)C[C@@H](O)[C@]12O	1690 nM	2470 nM	> 100 µg/mL	> 100 µg/mL	> 100 µg/mL	> 100 µg/mL
C[C@]12[C@H](O)C[C@H]3[C@@H](CC[C@H]4C[C@@H](O)CC[C@@]43CO)[C@@]1(O)CC[C@@H]2C1=CC(=O)OC1	549 nM	863 nM	> 100 µg/mL	> 100 µg/mL	> 100 µg/mL	> 100 µg/mL
C[C@@H]1C[C@@H](O)[C@]2(O)O[C@@H]3C[C@@]4(C=O)[C@@H](CC[C@@H]5[C@@H]4CC[C@]4(C)[C@@H](C6=CC(=O)OC6)CC[C@]54O)C[C@H]3O[C@@H]2O1 [CALACTIN]			> 100 µg/mL	> 100 µg/mL	> 100 µg/mL	> 100 µg/mL
C[C@@H]1C[C@@]2(N=CCS2)[C@]2(O)O[C@@H]3C[C@@]4(C=O)[C@@H](CC[C@@H]5[C@@H]4CC[C@]4(C)[C@@H](C6=CC(=O)OC6)CC[C@]54O)C[C@H]3O[C@@H]2O1 [USCHARIN]	104 nM	275 nM	> 100 µg/mL	> 100 µg/mL	> 100 µg/mL	> 100 µg/mL
